Assay results as given in US20020006930A1, “Method for stimulating liver regeneration” (priority 2000, published 2002).
“Also recorded” adds a separate entry of the source.

How the values were obtained:
[1] = tested on: proliferative factors (PF) in the plasma of PHX rats; experiment: Hepatocyte primary culture bioassay for proliferative factor (PF) production in plasma after 2/3 PHX; type: in vivo, rat; conditions: for reversal of L-NAME-induced blockade/inhibition: PHX rats given L-NAME plus L-arginine, in vivo
Description: The production of proliferative factors (PFs) was determined as previously described (21) . Briefly, PHX or PVL was performed as described above. Four hours after PHX or PVL, the diaphragm was cut and a blood sample drawn ([…] per rat) from the right ventricle of the heart using a 21 G 1.5-inch needle and a 10 ml sterile syringe. In a tissue culture hood, the blood was transferred to a sterile centrifuge tube, centrifuged at 2500 g for 20 minutes, and plasma stored at −20° C. The collagenase perfusion and hepatocyte isolation method was modified from Seglen (22), and has been previously described (21). Male Sprahue-Dawley rats (250 g) were anesthetized using sodium pentobarbital (6.5 mg/100 g, i.p.) and livers were perfused according to Seglen (22). Isolated cells were seeded (1×10^5 cells/ml, 2 ml per well) in six-well culture plates and allowed to attach to the plate overnight at 37° C. The next day, unattached cells were washed out of the wells and the starting viable cell number was counted from three randomly selected wells. Trypsin-EDTA (Gibco, BRL) was used to isolate attached hepatocytes from the plate and the hepatocytes were counted using a hemocytometer (Fisher Scientific). Fresh medium and plasma samples from PHX rats (10% final concentration) were added to the rest of the wells (three wells per sample). The medium, containing plasma, was changed at 24 hours. The attached viable cells were harvested at 48 hours. and the final count of viable hepatocytes was determined. The PF levels were expressed as net cell proliferation (viable cell count per well at 48 hours minus starting cell count per well).
The experiment was aimed to develop and optimize a hepatocyte primary culture bioassay to detect proliferative factors (PF) in the plasma or serum of partial hepatectomized (PHX) rats, which could serve as an index of the initiation of liver regeneration cascade.
The bioassay detects the presence of PF by measuring hepatocyte proliferation through a directly counting cell number increases over the culture period using a hemacytometer. The procedure of liver perfusion and hepatocyte purification was adopted from Seglen (1976 Methods Cell Biol. 13, 29) using Sprague Dawley rats. The purified hepatocytes ([…]) were seeded into 6-well culture plates and allowed to attach to the plate overnight at 37° C. The unattached cells were then washed out and the starting cell count was determined from 3 randomly picked wells in the culture after trypsin digestion. Sera collected from ⅔ PHX rats at 1-6 hours post PHX was added to the culture. With a medium change at 24 hours, the final cell counting was performed at 48 hours. The net cell proliferation was expressed as the difference between the counts at 48 hours and starting at hour (0 hr).
The optimized assay conditions ([…] plating concentration, 10% serum, 48 hr culture) were able to detect an increase of PF in PHX rat serum between 1-4 hours after PHX, with a peak activity at 4 hours (unpooled serum n=5/time point, pooled n=5/point). The assay has a high sensitivity to detect PF in ⅓ PHX rat serum (n=7), which was not detectable using the conventional DNA synthesis method.
(§1) To test the hypotheses, an […] hepatocyte primary culture bioassay was developed to detect PF in the plasma of PHX rats as an index of the initial trigger. The PHX surgery was performed according to the conventional method. Liver weight was also measured from the post PHX recovered rats to directly assess liver regeneration in vivo. The level of flow-dependent factors (e.g. adenosine (Ado), NO) was pharmacologically manipulated to test their roles in triggering the liver regeneration cascade.

c-fos mRNA = experiment: Hepatic c-fos mRNA expression after 2/3 PHX (northern blot); type: in vivo, rat
Description: Animals were divided into four groups: sham procedures, PHX, PHX+L-NAME (Sigma), a Nos antagonist, and PHX+L-NAME+3morpholinosydnonimine (SIN-1, Alexis Corp.), a NO donor. Animals were anesthetized by sodium pentobarbital (6.5 mg/100 g. i.p; MTC Pharmaceuticals). Anesthesia was maintained using a continuous i.v. infusion (Harvard infusion pump, model 2720) of sodium pentobarbital (1.08 mg/ml saline, 1.0 ml/100 g/hr) via a cannula inserted into the femoral vein (PE50), Intramedic Clay Adams Brand, Becton-Dickinson). All surgical procedures were performed between the 10:00 am and 2:00 pm. Arterial blood pressure was monitored via a cannula (PE50, Intramedic Clay Adams Brand, Becton-Dickson) inserted into the femoral artery. To facilitate breathing a tracheotomy was performed using a polyethylene tube (PE240, Intramedic Clay Adams Brand, Becton-Dickinson) inserted into the trachea. Body temperature was maintained at 37.5±0.5° C. by the use of a rectal thermometer (Hanna Instruments) and a heated surgical table (Harvard Apparatus). Laparotomy was performed and a 24 G cather (Optiva™, Johnson and Johnson Medical Inc.) was inserted into the portal vein. The rat was then allowed to stabilize for 30 minutes.
A 0.5 ml bolus of L-NAME (5.0 mg/kg), or saline was infused intravenously over two minutes. Ten minutes later, PHX (resection of the left lateral and median lobes as described by Higgins and Anderson (20) or gentle manipulation of the liver lobes was performed. Resected lobes were litigated using black braided surgical silk (size 0, Ethicon) and excised. […] Fifteen minutes after PHX, or sham manipulation, the remaining liver was removed, slashed and blotted to remove blood, and immediately frozen on dry ice. Portal venous pressure (PVP) was measured, using an R-611 SensorMedics Dynograph Recorder, immediately before and after PHX.
For additional experiments involving PHX+L-NAME, the surgical procedure was exactly the same at that for the ⅔ PHX described above, except that the remaining liver as removed at 30, 45 or 60 minutes after PHX.
Total RNA was isolated by a method modified from Chirgwin et al. (23). Liver tissue was homogenized (Brinkman, Polytron) in lithium chloride/urea (3M/6M; Sima). The homogenized was centrifuged at 25000 rpm (Brinkman L8-70M Ultracentrifuge) for 20 minutes at 4° C. […] The concentration of the RNA was then determined using a spectrophotometer (Ultrospec2000, Pharamacia Biotech). […] The membranes were prehybridized at 42° C. for 3 hours in prehybridization buffer consisting of 5×SSC, 7% SDS (Sigma), sheared denatured salmon sperm DNA (100 μg/ml, Gibco BRL) and 5×Denhardt's solution (Sigma). c-fos mRNA was detected using a 2.1 kb cDNA probe (kindly provided by Dr. C Steer, university of Minnesota, Minneapolis, Minn.). […]

[2] = tested on: proliferative factor (PF) activity in blood after PVL; experiment: Hepatocyte bioassay for PF activity in blood after selective portal vein branch ligation (PVL); type: in vivo, rat
From the text: Rats were divided into four groups: sham PVL, PVL, PVL+L-NAME and PVL+L-NAME+SIN-1. Surgical procedures were the same as described for PHX except that liver lobes were not ligated and […]. Rather, the left branch of the portal vein was carefully isolated and […]. The left branch of the portal vein was carefully isolated from the surrounding hepatic artery, hepatic nerves, bile duct and lymphatics. A thread was slipped around the left branch of the portal vein and the animal was allowed to recover for one hour. Following the recovery period, saline or L-NAME was administered as described for the PHX group, and the PVL+L-NAME+SIN-1 group received SIN-1 as indicated above. […] PVP was measured immediately before and after PVL, as described for PHX surgery.
The production of proliferative factors (PFs) was determined as previously described (21) . […] The next day, unattached cells were washed out of the wells and the starting viable cell number was counted from three randomly selected wells. Trypsin-EDTA (Gibco, BRL) was used to isolate attached hepatocytes from the plate and the hepatocytes were counted using a hemocytometer (Fisher Scientific). […] The attached viable cells were harvested at 48 hours. and the final count of viable hepatocytes was determined. The PF levels were expressed as net cell proliferation (viable cell count per well at 48 hours minus starting cell count per well).

two-thirds PHX rats = experiment: Restoration of liver weight and survival after two-thirds PHX; type: in vivo, rat; conditions: for post surgery survival rate: 36-44 hours
Description: The extent of liver regeneration can be assessed from a number of parameters, the most direct being the restoration of liver weight following PHX. […] Unfortunately, the liver regeneration studies are made complex by the well known observation that NO synthase blockade can potentiate the toxic reaction to inflammatory conditions. […] This can have been a factor in these studies where 6 of 14 rats died in the high dose group between 36 and 44 hours. These animals had only 18±4.7% regeneration. The ability to inhibit regeneration is compatible with a triggering role for NO.
as §1

cultured hepatocytes = experiment: Cultured hepatocytes exposed to L-NAME in vitro; type: cell-based, rat; conditions: L-NAME at concentrations estimated to occur in the in vivo experiments
From the text: To determine whether NO served as a trigger to initiate a further cascade of events or whether it served as a direct proliferating stimulus on hepatocytes, the cultured hepatocytes were exposed to concentrations of L-NAME estimated to occur in the in vivo experiments.

## N=C(N)NCCC[C@H](N)C(=O)O [L-arginine]
[1]
  reversal of L-NAME-induced blockade/inhibition: reversed the L-NAME inhibitory effect
[1]; listed as L-Arginine
  reversal of L-NAME-induced blockade/inhibition: significantly reversed the inhibition by L-NAME

## CC(=O)NC(C(=O)O)C(C)(C)SN=O (racemic) [SNAP, S-nitroso-N-acetyl-D,L-penacillamine]
c-fos mRNA; after PHX, SNAP 5 mg/kg
  c-fos mRNA expression: potentiates
c-fos mRNA; sham operated livers, SNAP 5 mg/kg
  c-fos mRNA expression: no effect

## N=c1c[n+](N2CCOCC2)[n-]o1 [SIN-1, 3-morpholinosydnonimine]
[1]; PHX, PF activity in blood four hours after
  reversal of L-NAME inhibition of PF activity: reversed the inhibition
[2]; PF activity in blood four hours after
  reversal of L-NAME inhibition of PF activity: reversed the inhibition

## CCCOc1ccccc1-c1nc2nn[nH]c2c(=O)[nH]1 [Zaprinast]
c-fos mRNA; after ⅔ PHX, Zaprinast 10 and 30 mg/kg
  c-fos mRNA expression: potentiated

## Nc1ncnc2c1ncn2[C@@H]1O[C@H](CO)[C@@H](O)[C@H]1O [Ado, adenosine]
[1]; 2/3 PHX rats, adenosine level manipulated
  effect on PF generation: no significant effects

## COC(=O)[C@@H](N)CCCNC(=N)N[N+](=O)[O-] [L-NAME, N-nitro-Larginine methyl ester]
[1]; two-thirds PHX rats, L-NAME i.v. at early time points after PHX, 4 hours peak PF
  appearance/generation of PF in the plasma: block 4 hours peak PF generation; also recorded: blocked the appearance of PF in the plasma; also recorded: inhibited
[1]; two-thirds PHX rats, i.v., not further inhibited by 5.0 mg/kg
  dose giving maximum inhibition of PF appearance: 2.5 mg/kg
[2]; four hours after, L-NAME
  PF activity in blood: inhibited
two-thirds PHX rats; L-NAME + PHX group (n=14), PHX control 100%
  post surgery survival rate: about 50%
two-thirds PHX rats; L-NAME-no-PHX control group (n=6)
  post surgery survival rate: 100%
two-thirds PHX rats; 48 hours post-PHX, low dose of L-NAME
  restoration of liver weight (regeneration): did not significantly inhibit regeneration
two-thirds PHX rats; high dose L-NAME group after PHX, between 36 and 44 hours
  rats that died: 6 of 14
two-thirds PHX rats; high dose L-NAME group, rats that died between 36 and 44 hours
  regeneration in animals that died: 18±4.7%
c-fos mRNA; L-NAME 5.0 mg/kg i.v. prior to PHX
  c-fos mRNA expression at 30, 45 and 60 minutes compared to 15 minutes after PHX: no difference in c-fos mRNA expression
Cultured hepatocytes
  direct effect on hepatocyte proliferation in vitro: positive proliferative stimulus
